Results: patent US9630929B2, “Benzenesulfonamide compounds and their use as therapeutic agents” (XENON PHARMACEUTICALS INC., priority 2011, dated 2017)
Read-outs that look alike come from different tables or passages of the source.

Molecular target: NaV1.7 (Homo sapiens (Human), UniProt Q15858)
Assay: Patch voltage clamp electrophysiology (EP), affinity for the inactivated state of Nav1.7
Format: cell-based
Conditions: HEK-293 cells expressing human Nav1.7 with β1 subunit
Procedure: The following patch voltage clamp electrophysiology studies were performed on representative compounds of the invention using human embryonic kidney cells (HEK), permanently transfected with an expression vector containing the full-length cDNA coding for the desired human sodium channel α-subunit, grown in culture media containing 10% FBS, 1% PSG, and 0.5 mg/mL G418 at 37° C. with 5% CO2. […] Nav1.7 and Nav1.5 cDNAs (NM_002977 and AC137587; SCN5A, respectively) were stably expressed in HEK-293 cells. The β1 subunit was coexpressed only in the Nav1.7 cell line.
Sodium currents were measured using the patch clamp technique in the whole-cell configuration using either a PatchXpress automated voltage clamp or manually using an Axopatch 200B (Axon Instruments) or Model 2400 (A-M systems) amplifier. […] The pipette was filled with a solution comprised of: 5 mM NaCl, 10 mM CsCl, 120 mM CsF, 0.1 mM CaCl2, 2 mM MgCl2, 10 mM HEPES, 10 mM EGTA; and adjusted to pH 7.2 with CsOH. The external solution had the following composition: 140 mM NaCl, 5 mM KCl, 2 mM CaCl2, 1 mM MgCl2, 10 mM HEPES; and adjusted to pH 7.4 with NaOH. In some studies, the external sodium was reduced by equimolar replacement with choline. Osmolarity in the CsF internal and NaCl external solutions was adjusted to 300 mOsm/kg and 310 mOsm/kg with glucose, respectively. All recordings were performed at ambient temperature in a bath chamber with a volume of 150 μL. Control sodium currents were measured in 0.5% DMSO. Controls and representative compounds of the invention were applied to the recording chamber through a 4-pinch or 8-pinch valve bath perfusion system manufactured by ALA Scientific Instruments.
Series resistance compensation was applied (60-80%). […] All statistics in this study are given as mean±SD.
The membrane potential was maintained at a voltage where inactivation of the channel is complete (which was −60 mV for both Nav1.7 and Nav1.5). The voltage is then stepped back to a very negative (Vhold=−150 mV) voltage for 20 ms and then a test pulse is applied to quantify the compound block. […] The percent decrease in sodium current following wash-on of compound was taken as the percent block of sodium channels.
The Example numbers provided in Table 1 and Table 2 correspond to the Examples herein: […]

NaV1.7, sequence (Q15858 other isoform, or with tags, fused parts or gaps): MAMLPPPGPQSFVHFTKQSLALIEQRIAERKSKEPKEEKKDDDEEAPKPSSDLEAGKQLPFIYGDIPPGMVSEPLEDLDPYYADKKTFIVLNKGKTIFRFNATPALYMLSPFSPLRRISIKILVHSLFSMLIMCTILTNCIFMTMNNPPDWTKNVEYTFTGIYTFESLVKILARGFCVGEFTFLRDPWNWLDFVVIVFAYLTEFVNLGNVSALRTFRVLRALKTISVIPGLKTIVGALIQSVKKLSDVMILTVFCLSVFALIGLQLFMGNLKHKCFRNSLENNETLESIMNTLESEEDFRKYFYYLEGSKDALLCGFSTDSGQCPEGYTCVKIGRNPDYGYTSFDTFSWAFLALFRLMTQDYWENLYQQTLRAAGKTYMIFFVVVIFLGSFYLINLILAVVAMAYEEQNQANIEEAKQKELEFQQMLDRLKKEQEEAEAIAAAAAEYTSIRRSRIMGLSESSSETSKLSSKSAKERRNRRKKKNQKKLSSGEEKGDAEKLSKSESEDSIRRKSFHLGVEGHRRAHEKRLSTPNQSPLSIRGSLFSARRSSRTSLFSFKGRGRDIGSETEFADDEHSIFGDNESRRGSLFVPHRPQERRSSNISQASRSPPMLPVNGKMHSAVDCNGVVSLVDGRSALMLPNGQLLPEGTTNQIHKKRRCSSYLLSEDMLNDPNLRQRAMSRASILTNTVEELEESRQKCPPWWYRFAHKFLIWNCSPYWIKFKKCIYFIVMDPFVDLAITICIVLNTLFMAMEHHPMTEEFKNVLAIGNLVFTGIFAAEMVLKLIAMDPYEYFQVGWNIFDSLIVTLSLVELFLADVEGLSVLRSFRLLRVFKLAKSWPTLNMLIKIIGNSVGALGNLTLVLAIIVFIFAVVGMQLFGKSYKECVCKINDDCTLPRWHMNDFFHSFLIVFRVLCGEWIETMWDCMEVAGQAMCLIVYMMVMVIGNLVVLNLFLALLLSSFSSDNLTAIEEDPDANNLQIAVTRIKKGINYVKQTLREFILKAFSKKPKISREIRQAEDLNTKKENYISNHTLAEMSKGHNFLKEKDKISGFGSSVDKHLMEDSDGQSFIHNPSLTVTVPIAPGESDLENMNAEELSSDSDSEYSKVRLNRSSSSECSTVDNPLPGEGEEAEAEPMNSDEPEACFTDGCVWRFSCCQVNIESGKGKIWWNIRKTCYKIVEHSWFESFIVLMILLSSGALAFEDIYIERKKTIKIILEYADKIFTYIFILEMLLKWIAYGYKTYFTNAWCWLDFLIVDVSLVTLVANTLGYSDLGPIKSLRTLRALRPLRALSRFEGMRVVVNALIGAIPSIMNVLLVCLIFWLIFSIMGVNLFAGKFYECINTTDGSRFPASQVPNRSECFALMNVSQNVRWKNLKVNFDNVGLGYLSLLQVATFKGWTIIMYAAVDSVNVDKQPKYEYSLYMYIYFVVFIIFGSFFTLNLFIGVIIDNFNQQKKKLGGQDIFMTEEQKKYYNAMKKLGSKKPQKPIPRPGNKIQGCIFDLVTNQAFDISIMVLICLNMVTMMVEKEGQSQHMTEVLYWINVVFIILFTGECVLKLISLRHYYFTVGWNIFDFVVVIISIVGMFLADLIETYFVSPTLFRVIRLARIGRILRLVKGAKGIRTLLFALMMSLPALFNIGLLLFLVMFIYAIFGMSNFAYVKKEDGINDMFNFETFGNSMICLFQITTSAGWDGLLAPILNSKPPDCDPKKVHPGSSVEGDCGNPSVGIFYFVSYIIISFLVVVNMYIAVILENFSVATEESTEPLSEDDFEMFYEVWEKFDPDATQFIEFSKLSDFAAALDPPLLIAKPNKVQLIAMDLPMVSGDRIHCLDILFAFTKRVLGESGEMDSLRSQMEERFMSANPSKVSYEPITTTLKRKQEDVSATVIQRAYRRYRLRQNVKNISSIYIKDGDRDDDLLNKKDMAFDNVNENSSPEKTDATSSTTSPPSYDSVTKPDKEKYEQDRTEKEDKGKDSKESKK
NaV1.7, sequence (Q07699 19-218 partner): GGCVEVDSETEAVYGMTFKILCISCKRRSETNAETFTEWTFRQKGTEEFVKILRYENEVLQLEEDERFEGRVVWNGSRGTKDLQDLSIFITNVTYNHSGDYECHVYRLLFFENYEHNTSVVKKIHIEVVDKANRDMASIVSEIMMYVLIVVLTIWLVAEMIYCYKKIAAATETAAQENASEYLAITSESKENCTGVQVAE

O=S(=O)(Nc1ncns1)c1cc(F)c(OC[C@@H]2CNCC[C@H]2c2ccc(Cl)cc2)cc1F (relative stereo) [Example 44, 4-((trans-4-(4-chlorophenyl)piperidin-3-yl)methoxy)-2,5-difluoro-N-(1,2,4-thiadiazol-5-yl)benzenesulfonamide]
IC50 (read-out: NaV1.7 (IC50 class)): < 100 nM

O=S(=O)(Nc1ncccn1)c1cc(F)c(OC[C@@H]2CNCC[C@H]2c2ccc(Cl)cc2)cc1F (relative stereo) [Example 49, 4-((trans-4-(4-chlorophenyl)piperidin-3-yl)methoxy)-2,5-difluoro-N-(pyrimidin-2-yl)benzenesulfonamide]
IC50 (read-out: NaV1.7 (IC50 class)): < 100 nM | IC50 (read-out: NaV1.7 IC50): 53.2 nM

O=S(=O)(Nc1ncccn1)c1cc(F)c(OC[C@@H]2CNCC[C@H]2c2ccc(F)cc2)cc1F (relative stereo) [Example 50, 2,5-difluoro-4-((trans-4-(4-fluorophenyl)piperidin-3-yl)methoxy)-N-(pyrimidin-2-yl)benzenesulfonamide]
IC50 (read-out: NaV1.7 (IC50 class)): 100 to 1000 nM | IC50 (read-out: NaV1.7 IC50): 323 nM

O=S(=O)(Nc1nncs1)c1cc(F)c(OC[C@@H]2CNCC[C@H]2c2ccc(Cl)cc2)cc1F (relative stereo) [Example 51, 4-((trans-4-(4-chlorophenyl)piperidin-3-yl)methoxy)-2,5-difluoro-N-(1,3,4-thiadiazol-2-yl)benzenesulfonamide]
IC50 (read-out: NaV1.7 (IC50 class)): < 100 nM | IC50 (read-out: NaV1.7 IC50): 84.4 nM

Cc1nsc(NS(=O)(=O)c2cc(F)c(OC[C@@H]3CNCC[C@H]3c3ccc(Cl)cc3)cc2F)n1 (relative stereo) [Example 52, 4-((trans-4-(4-chlorophenyl)piperidin-3-yl)methoxy)-2,5-difluoro-N-(3-methyl-1,2,4-thiadiazol-5-yl)benzenesulfonamide]
IC50 (read-out: NaV1.7 (IC50 class)): 100 to 1000 nM | IC50 (read-out: NaV1.7 IC50): 194 nM

O=S(=O)(Nc1ncns1)c1cc(F)c(OC[C@@H]2CNC[C@H]2c2ccc(Cl)cc2)cc1F (relative stereo) [Example 54, 4-((trans-4-(4-chlorophenyl)pyrrolidin-3-yl)methoxy)-2,5-difluoro-N-(1,2,4-thiadiazol-5-yl)benzenesulfonamide]
IC50 (read-out: NaV1.7 (IC50 class)): < 100 nM | IC50 (read-out: NaV1.7 IC50): 49.9 nM

Cc1cc(NS(=O)(=O)c2cc(F)c(OC[C@@H]3CNCC[C@H]3c3ccc(Cl)cc3)cc2F)no1 (relative stereo) [Example 56, 4-((trans-4-(4-chlorophenyl)piperidin-3-yl)methoxy)-2,5-difluoro-N-(5-methylisoxazol-3-yl)benzenesulfonamide]
IC50 (read-out: NaV1.7 (IC50 class)): 1000 to 10000 nM | IC50 (read-out: NaV1.7 IC50): 1890 nM

Cc1cnc(NS(=O)(=O)c2cc(F)c(OC[C@@H]3CNCC[C@H]3c3ccc(Cl)cc3)cc2F)s1 (relative stereo) [Example 57, 4-((trans-4-(4-chlorophenyl)piperidin-3-yl)methoxy)-2,5-difluoro-N-(5-methylthiazol-2-yl)benzenesulfonamide]
IC50 (read-out: NaV1.7 (IC50 class)): 100 to 1000 nM | IC50 (read-out: NaV1.7 IC50): 116 nM

O=S(=O)(Nc1ccc(F)cn1)c1cc(F)c(OC[C@@H]2CNCC[C@H]2c2ccc(Cl)cc2)cc1F (relative stereo) [Example 63, 4-((trans-4-(4-chlorophenyl)piperidin-3-yl)methoxy)-2,5-difluoro-N-(5-fluoropyridin-2-yl)benzenesulfonamide]
IC50 (read-out: NaV1.7 (IC50 class)): < 100 nM | IC50 (read-out: NaV1.7 IC50): 70.5 nM

O=S(=O)(Nc1cccnn1)c1cc(F)c(OC[C@@H]2CNCC[C@H]2c2ccc(Cl)cc2)cc1F (relative stereo) [Example 65, 4-((trans-4-(4-chlorophenyl)piperidin-3-yl)methoxy)-2,5-difluoro-N-(pyridazin-3-yl)benzenesulfonamide]
IC50 (read-out: NaV1.7 (IC50 class)): 100 to 1000 nM | IC50 (read-out: NaV1.7 IC50): 171 nM

O=S(=O)(Nc1ncns1)c1cc(F)c(OC[C@H]2CNCC[C@H]2c2ccc(Cl)cc2)cc1F (relative stereo) [Example 66, 4-((cis-4-(4-chlorophenyl)piperidin-3-yl)methoxy)-2,5-difluoro-N-(1,2,4-thiadiazol-5-yl)benzenesulfonamide]
IC50 (read-out: NaV1.7 IC50): 237 nM
